Test results: patent US20230295201A1 (Gilead Sciences, Inc., priority 2020, published 2023)
pEC50: −log10 of the molar value. Where two headings read alike, the source gives them in different places.

Legend:
Format in all cases: cell-based
RSV A2 = experiment: RSV NHBE EC50 (RSV A2 antiviral assay in normal human bronchial epithelial cells); settings: NHBE cells, RSV A2, 4 days, read-out: RSV NHBE EC50
DENV2 replicon = experiment: DENV-2 Huh-7 Rep EC50 (replicon luminescence); settings: read-out: DENV-2 Huh-7 Rep EC50
Summary of the method: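 EC50 derived from luminescence dose-response, normalised to DMSO-only 0% inhibition wells, after 1.5 h with EnduRen substrate. Compounds were first exposed for 48 h at 37° C to DENV2 replicon Huh-7 cells (5,000/well).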

[1] = system: Dengue 2, New Guinea strain (NGC); experiment: DENV-2 moDC EC50 (qPCR in human monocyte-derived dendritic cells); settings: moDCs
Protocol: Human monocyte-derived dendritic cells (moDCs) were derived from CD14+ monocytes (AllCells) cultured in Human Mo-DC Differentiation medium containing GM-CSF and IL-4 (Miltenyi Biotec). On day 7, moDCs were harvested by mechanical disruption, washed and suspended in serum-free RPMI. moDCs were infected with Vero-derived Dengue 2, New Guinea strain (NGC) at a MOI=0.1 for two hours in serum-free RPMI with gentle agitation at 37° C. Cells were washed and resuspended in 10% serum-containing RPMI (Gibco, supplemented with sodium pyruvate, NEAA, Penicillin-Streptomycin). 10^5 cells were plated in triplicate in 96-well plates with compounds dispensed at graded doses (Hewlett-Packard D300 Digital Dispenser). All wells were normalized to 0.25% DMSO. At 48 hours, cells were washed with 1×PBS and all supernatants removed. Total RNA was extracted using RNEasy 96 plates (Qiagen) and used to generate first-strand cDNA using XLT cDNA 5× Supermix (QuantaBio). cDNA was used as a template in a Taqman qPCR duplex reaction specific to DENV2 viral and GAPDH gene expression. EC50 values were determined using Prism Graphpad software, with normalization to a positive control and no compound negative control wells.

HRV16 = HRV16 HELA EC50 (cytopathic effect in H1-HeLa cells)
Summary of the method: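 Read-out is luminescent cell viability (CellTiter-Glo) after 96 h of infection at 33 °C, scaled between uninfected and infected-untreated wells. Before infection with titrated virus, compounds went onto H1-HeLa cells as triplicate 3-fold dilution series.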

[2] = system: Dengue serotype 2 New Guinea C (NGC) strain; experiment: DENV-2 Huh-7 EC50 (qPCR in Huh7 cells)
Protocol: Huh7 (Human hepatocarcinoma 7) cells were maintained in 10% FCS-containing DMEM complete media. On the day of the assay, cells were trypsinized (0.1% Trypsin-EDTA), washed and infected for 2 hours in serum-free DMEM with Dengue serotype 2 New Guinea C (NGC) strain at MOI=0.1 with gentle agitation at 37° C. After 2 hours, cells were washed with serum-free media and suspended in 10% FCS-containing DMEM (Gibco, supplemented with sodium pyruvate, NEAA, Penicillin-Streptomycin). 10^5 cells were plated in triplicate in 96-well plates with compounds dispensed at graded doses (Hewlett-Packard D300 Digital Dispenser). All wells were normalized to 0.25% DMSO. At 48 hours, cells were washed with 1×PBS and all supernatants removed. Total RNA was extracted using RNEasy 96 plates (Qiagen) and used to generate first-strand cDNA using XLT cDNA 5×Supermix (QuantaBio). cDNA was used as a template in a Taqman qPCR duplex reaction specific to DENV2 viral and GAPDH gene expression. EC50 values were determined using Prism Graphpad software, with normalization to a positive control and no compound negative control wells.

RSV strain A2 = experiment: RSV HEp-2 EC50 (infectious cytopathic cell protection assay); settings: HEp-2 cells, RSV A2, 4 days, read-out: RSV HEp-2 EC50
Summary of the method: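 Percent inhibition of RSV-induced cytopathic effect came from remaining cell viability (CellTiter-Glo luminescence) after 4 days at 37° C. Compounds in 3-fold serial dilutions were exposed to an infectious mix of titered A2 virus and HEp-2 cells at 50,000/ml, with 0% and 100% inhibition control standards.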

HCV replicon 1B = experiment: HCV Rep 1B EC50 (replicon luciferase)
Protocol: (§1) Compounds were serially diluted in ten steps of 1:3 dilutions in 384-well plates. All serial dilutions were performed in four replicates per compound within the same 384-well plate. […] To each well of a black polystyrene 384-well plate (Greiner Bio-one, Monroe, NC), 90 μL of cell culture medium (without Geneticin) containing 2000 suspended HCV replicon cells was added with a Biotek μFlow workstation. For compound transfer into cell culture plates, 0.4 μL of compound solution from the compound serial dilution plate was transferred to the cell culture plate on a Biomek FX workstation. The DMSO concentration in the final assay wells was 0.44%. The plates were incubated for 3 days at 37° C. with 5% CO2 and 85% humidity. The HCV replicon assay was a multiplex assay, able to assess both cytotoxicity and antireplicon activity from the same well. The CC50 assay was performed first. The media in the 384-well cell culture plate was aspirated, and the wells were washed four times with 100 μL of PBS each, using a Biotek ELX405 plate washer. A volume of 50 μL of a solution containing 400 nM calcein AM (Anaspec, Fremont, CA) in 1×PBS was added to each well of the plate with a Biotek μFlow workstation. The plate was incubated for 30 min at room temperature before the fluorescence signal (excitation 490 nm, emission 520 nm) was measured with a Perkin-Elmer Envision plate reader. The EC50 assay was performed in the same wells as the CC50 assay. The calcein-PBS solution in the 384-well cell culture plate was aspirated with a Biotek ELX405 plate washer. A volume of 20 μL of Dual-Glo luciferase buffer (Promega, Madison, WI) was added to each well of the plate with a Biotek μFlow Workstation. The plate was incubated for 10 min at room temperature. A volume of 20 μL of a solution containing a 1:100 mixture of Dual-Glo Stop & Glo substrate (Promega, Madison, WI) and Dual-Glo Stop & Glo buffer (Promega, Madison, WI) was added to each well of the plate with a Biotek μFlow Workstation. The plate was then incubated at room temperature for 10 min before the luminescence signal was measured with a Perkin-Elmer Envision Plate Reader.

HCV replicon 2A = experiment: HCV Rep 2A EC50 (replicon luciferase)
Protocol: as §1

[3] = human respiratory syncytial virus, NHBE, 96 h
[4] = Dengue virus, DENV2, Huh-7, 48 h, Huh-7 replicon cells, 48 hours
[5] = Dengue virus, DENV2, Dendritic cell, 48 h
[6] = 96 h, H1-HeLa cells, 33° C., read-out: HRV16 HELA EC50
[7] = Dengue virus, DENV2, Huh-7, 48 h
[8] = human respiratory syncytial virus, HEp-2, 96 h
[9] = replicon cells, 3 days, read-out: HCV Rep 1B EC50
[10] = replicon cells, 3 days, read-out: HCV Rep 2A EC50
[11] = H1-HeLa cells, 96 h, 33° C.; read-out: HRV16 HELA EC50
[12] = human respiratory syncytial virus, 96 h

SMILES | pEC50 (DENV2 replicon; [4]) | pEC50 (RSV A2) | pEC50 (HCV replicon 1B; [9]) | pEC50 (RSV strain A2) | pEC50 (DENV2 replicon; Huh-7 replicon cells, 48 hours) | pEC50 (HCV replicon 2A; [10]) | pEC50 ([2]; 48 hours) | pEC50 (HRV16; [11]) | other results
CCCCOC(=O)[C@H](C)N[P@](=O)(OC[C@@]1(C#N)O[C@@H](c2ccc3c(N)ncnn23)[C@H](O)[C@@H]1O)Oc1ccccc1 [Example 54, butyl ((S)-(((2R,3S,4R,5S)-5-(4-aminopyrrolo[2,1-f][1,2,4]triazin-7-yl)-2-cyano-3,4-dihydroxytetrahydrofuran-2-yl)methoxy)(phenoxy)phosphoryl)-L-alaninate] | 5.13 | – | – | – | – | – | – | – | pEC50 (RSV A2; [3]): 6.98; pEC50 [1, 5]: 6.09; pEC50 (HRV16; [6]): 6.42; pEC50 [2, 7]: 5.59
CCCCCCCCCCCC(=O)Nc1ncnn2c([C@@H]3O[C@](C#N)(CO[P@@](=O)(N[C@@H](C)C(=O)OC4CCCCC4)Oc4ccccc4)[C@@H](O)[C@H]3O)ccc12 [Example 232, Cyclohexyl ((S)-(((2R,3S,4R,5S)-2-cyano-5-(4-dodecanamidopyrrolo[2,1-f][1,2,4]triazin-7-yl)-3,4-dihydroxytetrahydrofuran-2-yl)methoxy)(phenoxy)phosphoryl)-L-alaninate] | 5.27 | – | – | – | – | – | – | – | pEC50 (RSV A2; [3]): 7.01; pEC50 (RSV strain A2; [8]): 7.21; pEC50 [1, 5]: 5.96; pEC50 (HRV16; [6]): 6.32
COCCCOC(=O)[C@H](C)NP(=O)(OC[C@@]1(C#N)O[C@@H](c2ccc3c(N)ncnn23)[C@H](O)[C@@H]1O)Oc1ccccc1 (single isomer, unassigned) [Example 60] | – | 6.44 | 5.22 | 6.23 | 4.38 | 4.97 | 5.17 | – | –
CC(NP(=O)(OCC1(C#N)OC(c2ccc3c(N)ncnn23)C(O)C1O)Oc1ccccc1)C(=O)OC1CCOC1 (single isomer, unassigned) [Example 69] | – | – | 4.60 | – | < 4.00 | 4.30 | – | 5.14 | –
CCC(CC)COC(=O)[C@H](C)NP(=O)(N[C@@H](C)C(=O)OCC(CC)CC)OC[C@@]1(C#N)O[C@@H](c2ccc3c(N)ncnn23)[C@H](O)[C@@H]1O [Example 7] | – | – | – | – | – | – | – | 5.23 | pEC50 (RSV A2; [12]): 6.58; pEC50 (RSV strain A2; [12]): 5.73; pEC50 (DENV2 replicon; [7]): 4.48; pEC50 ([1]; Dengue virus, DENV2, Dendritic cell, 48 hours): < 4.60
CCC(CC)COC(=O)[C@H](C)NP(=O)(N[C@@H](C)C(=O)OC1CCCCC1)OC[C@@]1(C#N)O[C@@H](c2ccc3c(N)ncnn23)[C@H](O)[C@@H]1O (single isomer, unassigned) [Example 227] | – | 6.90 | 4.99 | 6.21 | 4.40 | 5.32 | – | 5.31 | –
CC(NP(=O)(OCC1(C#N)OC(c2ccc3c(N)ncnn23)C(O)C1O)Oc1ccccc1)C(=O)OC1CCOC1 (single isomer, unassigned) [Example 70] | – | – | 5.03 | – | < 4.00 | 4.49 | – | 5.28 | –
CC(NP(=O)(OCC1(C#N)OC(c2ccc3c(N)ncnn23)C(O)C1O)Oc1ccccc1)C(=O)OCC1CCC(C(F)(F)F)CC1 (single isomer, unassigned) [Example 28] | – | 7.28 | – | 6.62 | 4.53 | – | 5.67 | 6.23 | –
CCC(C)(C)COC(=O)[C@H](C)NP(=O)(OC[C@@]1(C#N)O[C@@H](c2ccc3c(N)ncnn23)[C@H](O)[C@@H]1O)Oc1ccccc1 (single isomer, unassigned) [Example 256] | – | 6.37 | – | 7.27 | < 4.00 | – | < 4.74 | – | pEC50 ([1]; 48 hours): 6.99
CCCCCCCCOC(=O)[C@H](C)NP(=O)(OC[C@@]1(C#N)O[C@@H](c2ccc3c(N)ncnn23)[C@H](O)[C@@H]1O)Oc1ccccc1 (stereo partly drawn) [Example 188, octyl ((((2R,3S,4R,5S)-5-(4-aminopyrrolo[2,1-f][1,2,4]triazin-7-yl)-2-cyano-3,4-dihydroxytetrahydrofuran-2-yl)methoxy)(phenoxy)phosphoryl)-L-alaninate] | 4.67 | – | – | – | – | – | – | – | pEC50 (RSV A2; [3]): 7.42; pEC50 (RSV strain A2; [8]): 6.73; pEC50 (HRV16; [6]): 6.37; pEC50 [2, 7]: 5.52
C[C@H](NP(=O)(OC[C@@]1(C#N)O[C@@H](c2ccc3c(N)ncnn23)[C@H](O)[C@@H]1O)Oc1ccccc1)C(=O)O[C@H]1CCOC1 (single isomer, unassigned) [Example 66] | < 4.00 | – | – | – | – | – | – | – | pEC50 (HCV replicon 1B; Hepatitis C virus, 72 h, read-out: HCV Rep 1B EC50, replicon cells, 3 days): 4.83; pEC50 (HCV replicon 2A; Hepatitis C virus, 72 h, read-out: HCV Rep 2A EC50, replicon cells, 3 days): 4.66
CCC(C)(C)COC(=O)[C@H](C)NP(=O)(OC[C@@]1(C#N)O[C@@H](c2ccc3c(N)ncnn23)[C@H](O)[C@@H]1O)Oc1ccccc1 (single isomer, unassigned) [Example 255] | – | 7.37 | – | 7.74 | 5.31 | – | 6.08 | – | pEC50 [1, 5]: 7.07
